In patent US5981592A, “Method and composition for treating cystic fibrosis” (priority 1998, dated 1999):

Tests used:
[1] = tested on: epithelial cells of the distal colon (crypts); assay: Labelling Index (LI) of proliferating crypt cells in distal colon, BrD-U staining; type: in vivo, Female Sprague-Dewley rats; conditions: rats, 30 days; for LI (Labelling Index): 6.3 mg/Kg/day, distal colon, control 12.62, P<0.05
Description: The term "effective to elicit a chemoprotective effect" was used herein means that abnormal cell proliferation is reduced. A method of measuring cell proliferation in animals is the Labelling Index (LI). Epithelial cells of the distal colon are stained using a histologic biomarker of proliferating cells. Microscopic examination allows for quantification of the proportion of proliferating cells in the crypts. A high proportion of proliferating cells or LI, particularly in the upper portion of the crypts, is an indicator of abnormal cell proliferation. A reduction in the LI of at least 10 to 50%, preferably at least 30% is associated with the reduction of abnormal cell proliferation. Of course, the particular R-NSAID used must be enantiomerically stable in the animal species being tested.
(§1) A study was performed to compare the R- and S-isomers of flurbiprofen with regard to their effect on the Labelling Index (LI) and duodenal ulceration in contrast to the S-isomer.
(§2) Female Sprague-Dewley rats were randomized to 4 groups (N=10) receiving 6.3 mg/Kg/day R-flurbiprofen; 6.3 mg/Kg/day S-flurbiprofen; 12.5 mg/Kg/day racemic flurbiprofen; or vehicle control. Fasted rats were sacrificed after 30 days. Small bowel ulcer score was recorded in each group.
The LI is calculated using a histologic biomarker of proliferating cells, a monoclonal antibody to Bromo-deoxyuridine (BrD-U). Intestinal crypts are examined microscopically in longitudinal sections such that proliferating cells are identified and quantified as a proportion of total crypt cells. An LI was determined for each rat using BrD-U staining to identify the proportion of mitotic cells in the crypt of Leiberkuhn. Twelve well-oriented crypts (distal colon) were examined in each rat.

[2] = tested on: cystic fibrosis lung disease; conditions: cited from earlier work
[3] = tested on: neutrophils; conditions: high doses; stated as believed; cited from earlier work
[4] = tested on: white cell count in the blood; conditions: in vivo; cited from earlier work
[5] = tested on: colon cancer; conditions: cited from earlier work; for survival among colon cancer patients: 5-fluorouracil alone or with levamisole
[6] = tested on: small bowel; set-up: species or system Female Sprague-Dewley rats; conditions: rat, in vivo
Method: The term "with reduced gastrointestinal toxicity" as used herein means that the administration of the particular R-NSAID is less ulcerogenic to the gastrointestinal tract of the human or other mammal than the corresponding racemate or S-NSAID. One measure of ulcerogenic activity is the small bowel ulcer score. A rat is treated daily through oral administration of the R-NSAID for 30 days. At the end of the 30 days, the rat is sacrificed and the intestines removed. Lesions of appreciable size in the mucosa are measured. A cumulative score equaling the sum of the diameters of the ulcers measured are reported as the ulcer score. An ulcer score essentially equal to that of a control rat, or a reduction of the ulcer score of at least 50 to 90%, preferably at least 80%, as compared to the corresponding S-NSAID or racemate, is considered a reduction in gastrointestinal toxicity.
as §1, §2

[7] = tested on: neutrophil traffic; assay: effect on neutrophil traffic in the normal rat; type: in vivo; conditions: for neutrophil adhesiveness and extravasation: post-capillary venules and surrounding tissue
[8] = tested on: gastric mucosa; conditions: in vivo; cited from earlier work
[9] = tested on: colon cancer; conditions: cited from earlier work; for prevention of cancer of the large bowel and rectum: causal relationship with use identified by the reference

## CC(C(=O)O)c1ccc(-c2ccccc2)c(F)c1 (racemic) [racemic flurbiprofen]
[1]; equal-molar doses of both enantiomers (racemic 12.5 mg/Kg/day), relative to R- and S-flurbiprofen groups
  LI, result in words: further reduced

## CC(C)Cc1ccc(C(C)C(=O)O)cc1 (racemic) [racemic ibuprofen]
[2]; high doses, four-year period, cystic fibrosis patients
  progression of the lung disease: slows progression of the lung disease
[2]; human, in vivo
  side effects at high doses: conjunctivitis and epistaxis
[3]
  influx of neutrophils to the alveolar crevices: inhibits the influx of neutrophils to the alveolar crevices
[4]
  leukopenia/agranulocytosis syndrome: leukopenia/agranulocytosis syndrome has been described

## O=c1[nH]cc(F)c(=O)[nH]1 [5-fluorouracil]
[5]
  survival among colon cancer patients: No improvement in survival

## C[C@@H](C(=O)O)c1ccc(-c2ccccc2)c(F)c1 [R-flurbiprofen]
[6]
  ulcerogenicity, in words: much less ulcerogenic than its S-enantiomer
[7]
  effect on neutrophil traffic relative to the S-enantiomer: as effective as the S-enantiomer
  neutrophil adhesiveness and extravasation: produce neutrophil adhesiveness in the post-capillary venules and extravasation of neutrophils into the surrounding tissue
[1]
  cell proliferation in the distal colon, in words: suppresses cell proliferation in the distal colon
  LI (Labelling Index): 8.71

## CC(C)Cc1ccc([C@H](C)C(=O)O)cc1 [S(+) ibuprofen]
[2]; human, in vivo
  gastrointestinal side effects: severely limit the chronic use of this therapy

## C[C@H](C(=O)O)c1ccc(-c2ccccc2)c(F)c1 [S-flurbiprofen]
[7]
  neutrophil adhesiveness and extravasation: produce neutrophil adhesiveness in the post-capillary venules and extravasation of neutrophils into the surrounding tissue
[1]
  LI (Labelling Index): 9.09

## CC(=O)Oc1ccccc1C(=O)O [aspirin]
[8]
  damage and irritation of the gastric mucosa: cause damage and irritation of the gastric mucosa
[9]; epidemiologic survey
  protection against colon cancer: confer protection against colon cancer

## COc1ccc2c(c1)c(CC(=O)O)c(C)n2C(=O)c1ccc(Cl)cc1 [indomethacin]
[4]
  leukopenia/agranulocytosis syndrome: leukopenia/agranulocytosis syndrome has been described
[8]
  damage and irritation of the gastric mucosa: cause damage and irritation of the gastric mucosa
[9]
  prevention of cancer of the large bowel and rectum: prevention of cancer of the large bowel and rectum

## CC(C(=O)O)c1cccc(C(=O)c2ccccc2)c1 (stereo not drawn) [ketoprofen]
[4]
  leukopenia/agranulocytosis syndrome: leukopenia/agranulocytosis syndrome has been described

## c1ccc([C@H]2CN3CCSC3=N2)cc1 [levamisole]
[5]
  survival among colon cancer patients: improved survival rate
[5]; human, in vivo
  T-cell count / immune system: stimulate the immune system and increase T-cell count

## CN1C(C(=O)Nc2ccccn2)=C(O)c2ccccc2S1(=O)=O [peroxicam]
[9]
  prevention of cancer of the large bowel and rectum: prevention of cancer of the large bowel and rectum

## CC1=C(CC(=O)O)c2cc(F)ccc2/C1=C\c1ccc([S+](C)[O-])cc1 (stereo not drawn) [sulindac]
[9]
  prevention of cancer of the large bowel and rectum: prevention of cancer of the large bowel and rectum
